Assays:
Format in all cases: biochemical
BTK = target: T1, BTK (Homo sapiens, UniProt Q06187); test: Btk in vitro inhibitory activity (TR-FRET, mobility shift or radiometric filter binding kinase assay); settings: determined using one of the methods outlined in Example 47a, 47b, and 47c
T1 construct: purified from insect cells as a full-length construct containing a N-terminal 6×-His tag; His6 (N); made in house; host or cells: insect cells (baculovirus, Sf21)
Protocol: (§1) Btk kinase activity is determined using a time-resolved fluorescence resonance energy transfer (TR-FRET) methodology. Measurements are performed in a reaction volume of 50 μL using 96-well assay plates. […] The reaction is quenched by the addition of 1.2 equivalents of EDTA (relative to divalent cation) in 25 μL of 1× Lance buffer (Perkin-Elmer). Streptavidin-APC (Perkin-Elmer) and Eu-labeled p-Tyr100 antibody (Perkin-Elmer) in 1× Lance buffer are added in a 25 μL volume to give final concentrations of 100 nM and 2.5 nM, respectively, and the mixture is allowed to incubate for one hour. The TR-FRET signal is measured on a multimode plate reader with an excitation wavelength (λEx) of 330 nm and detection wavelengths (λEm) of 615 and 665 nm. Activity is determined by the ratio of the fluorescence at 665 nm to that at 615 nm. For each compound, enzyme activity is measured at various concentrations of compound. Negative control reactions are performed in the absence of inhibitor in replicates of six, and two no-enzyme controls are used to determine baseline fluorescence levels. Inhibition constants, Ki(app), ware obtained using the program BatchKi (Kuzmic et al. (2000), Anal. Biochem. 286:45-50). IC50s are obtained according to the equation: IC50={Ki(app)/(1+[ATP]/Km^ATP)}+[E]total/2;
(§2) For all kinases, [ATP]=Km^ATP, [Btk]total=0.5 nM and [Lck]total=6 nM.
Kinase activity is measured in vitro using electrophoretic mobility shift assay. The kinase reactions are assembled in a total volume of 25 μL in 384 well plates. […] The reaction is incubated for one hour and is quenched by the addition of 45 μL of termination buffer (100 mM HEPES, pH7.5, 0.01% Triton X-100, 30 mM EDTA). The terminated reactions are analyzed using 12 channel LabChip® 3000 microfluidic detection instrument (Caliper Life Sciences). The enzymatic phosphorylation of the peptide results in a change in net charge, enabling electrophoretic separation of product from substrate peptide. As substrate and product peptides are separated, two peaks of fluorescence are observed. Change in the relative fluorescence intensity of the substrate and product peaks is the parameter measured, reflecting enzyme activity. In the presence of an inhibitor, the ratio between product and substrate is altered: the signal of the product decreases, while the signal of the substrate increases.
Activity in each sample is determined as the product to sum ratio (PSR): P/(S+P), where P is the peak height of the product peptide and S is the peak height of the substrate peptide. For each compound, enzyme activity is measured at various concentrations (12 concentrations of compound spaced by 3× dilution intervals). Negative control samples (0%-inhibition in the absence of inhibitor) and positive control samples (100%-inhibition, in the presence of 20 mM EDTA) are assembled in replicates of four and are used to calculate %-inhibition values for each inhibitor at each concentration. Percent inhibition (Pinh) is determined using following equation: Pinh=(PSR0%−PSRinh)/(PSR0%−PSR100%)*100,
where PSRmh is the product sum ratio in the presence of inhibitor, PSR0% is the average product sum ration in the absence of inhibitor and PSR100% is the average product sum ratio in 100%-inhibition control samples;
The IC50 values of inhibitors are determined by 4 parameter sigmoidal dose-response model fitting of the inhibition curves (Pinh versus inhibitor concentration) using XLfit 4 software.
Human Btk kinase (Genbank accession # NP_000052) was purified from insect cells as a full-length construct containing a N-terminal 6×-His tag. Btk kinase activity was determined using a radiometric filter binding assay. Measurements are performed in a low μL reaction volume 384-well assay plates. […]

Jak3 = target: T2, Jak3 (Homo sapiens, UniProt P52333); test: Jak3 kinase inhibition (in vitro kinase assay)
T2 sequence (P52333 1-1124): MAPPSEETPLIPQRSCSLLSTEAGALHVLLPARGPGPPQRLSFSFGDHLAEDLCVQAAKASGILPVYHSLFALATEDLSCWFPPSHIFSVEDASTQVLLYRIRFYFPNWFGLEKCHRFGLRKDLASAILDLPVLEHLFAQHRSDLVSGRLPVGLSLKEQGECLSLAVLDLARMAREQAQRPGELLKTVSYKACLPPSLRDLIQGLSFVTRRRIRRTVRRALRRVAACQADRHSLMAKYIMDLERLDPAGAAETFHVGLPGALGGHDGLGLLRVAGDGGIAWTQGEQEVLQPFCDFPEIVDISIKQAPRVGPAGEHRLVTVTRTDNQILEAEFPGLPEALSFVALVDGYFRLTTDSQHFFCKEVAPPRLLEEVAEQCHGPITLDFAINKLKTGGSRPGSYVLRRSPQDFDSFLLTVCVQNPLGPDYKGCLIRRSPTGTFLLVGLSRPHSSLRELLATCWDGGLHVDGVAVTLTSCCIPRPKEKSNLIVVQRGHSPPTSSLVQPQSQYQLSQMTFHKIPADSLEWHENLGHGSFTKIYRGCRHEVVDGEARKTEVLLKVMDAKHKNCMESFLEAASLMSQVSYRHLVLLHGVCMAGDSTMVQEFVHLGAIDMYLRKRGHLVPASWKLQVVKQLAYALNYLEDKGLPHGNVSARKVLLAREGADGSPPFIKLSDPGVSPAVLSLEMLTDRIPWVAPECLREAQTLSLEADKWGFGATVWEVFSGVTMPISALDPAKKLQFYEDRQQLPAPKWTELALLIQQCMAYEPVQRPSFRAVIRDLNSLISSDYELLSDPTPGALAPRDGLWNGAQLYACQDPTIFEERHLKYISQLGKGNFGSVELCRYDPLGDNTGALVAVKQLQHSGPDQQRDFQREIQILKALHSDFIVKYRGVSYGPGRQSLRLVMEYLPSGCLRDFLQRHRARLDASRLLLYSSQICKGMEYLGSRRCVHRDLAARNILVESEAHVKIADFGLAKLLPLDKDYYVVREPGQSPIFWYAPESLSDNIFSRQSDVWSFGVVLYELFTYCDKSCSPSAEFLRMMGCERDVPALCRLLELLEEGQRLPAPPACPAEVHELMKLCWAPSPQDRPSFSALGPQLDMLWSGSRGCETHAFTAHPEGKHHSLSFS

EGFR = EGFR (Homo sapiens, UniProt P00533); test: EGFR kinase inhibition (in vitro kinase assay)
Sequence of EGFR (P00533 25-1210, species assumed): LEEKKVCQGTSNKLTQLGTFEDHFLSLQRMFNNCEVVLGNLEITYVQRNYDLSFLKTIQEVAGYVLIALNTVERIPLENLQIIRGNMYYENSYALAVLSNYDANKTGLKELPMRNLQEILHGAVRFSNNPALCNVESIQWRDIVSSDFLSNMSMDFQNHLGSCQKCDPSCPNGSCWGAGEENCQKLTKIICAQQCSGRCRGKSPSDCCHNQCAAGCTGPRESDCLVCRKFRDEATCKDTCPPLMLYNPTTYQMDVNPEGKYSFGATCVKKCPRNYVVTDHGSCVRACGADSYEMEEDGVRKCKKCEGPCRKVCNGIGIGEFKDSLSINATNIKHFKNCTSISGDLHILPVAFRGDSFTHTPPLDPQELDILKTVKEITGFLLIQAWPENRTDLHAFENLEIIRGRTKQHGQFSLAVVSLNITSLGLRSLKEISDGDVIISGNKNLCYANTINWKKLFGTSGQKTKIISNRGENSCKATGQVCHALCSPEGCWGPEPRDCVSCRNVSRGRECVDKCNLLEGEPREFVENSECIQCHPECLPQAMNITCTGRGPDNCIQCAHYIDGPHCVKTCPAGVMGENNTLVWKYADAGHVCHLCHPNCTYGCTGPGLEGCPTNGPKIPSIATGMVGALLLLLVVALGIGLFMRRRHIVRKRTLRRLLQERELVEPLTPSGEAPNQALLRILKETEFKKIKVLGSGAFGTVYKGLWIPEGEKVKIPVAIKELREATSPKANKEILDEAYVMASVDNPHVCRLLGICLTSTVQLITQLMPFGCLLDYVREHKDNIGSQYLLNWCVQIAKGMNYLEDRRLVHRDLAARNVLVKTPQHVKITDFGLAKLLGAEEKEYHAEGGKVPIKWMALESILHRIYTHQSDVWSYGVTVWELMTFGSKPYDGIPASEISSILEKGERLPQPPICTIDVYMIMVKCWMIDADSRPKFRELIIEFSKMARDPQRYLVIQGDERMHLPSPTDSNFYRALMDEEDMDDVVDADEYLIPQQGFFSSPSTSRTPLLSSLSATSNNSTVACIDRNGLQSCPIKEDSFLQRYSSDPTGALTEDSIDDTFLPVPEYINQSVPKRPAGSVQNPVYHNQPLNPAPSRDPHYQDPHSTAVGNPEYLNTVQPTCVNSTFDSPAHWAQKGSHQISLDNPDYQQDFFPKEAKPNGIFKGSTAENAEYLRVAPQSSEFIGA

Lck = Lck (Homo sapiens, UniProt P06239); test: Lck kinase inhibition (in vitro kinase assay)
Sequence of Lck (P06239 whole entry, species assumed): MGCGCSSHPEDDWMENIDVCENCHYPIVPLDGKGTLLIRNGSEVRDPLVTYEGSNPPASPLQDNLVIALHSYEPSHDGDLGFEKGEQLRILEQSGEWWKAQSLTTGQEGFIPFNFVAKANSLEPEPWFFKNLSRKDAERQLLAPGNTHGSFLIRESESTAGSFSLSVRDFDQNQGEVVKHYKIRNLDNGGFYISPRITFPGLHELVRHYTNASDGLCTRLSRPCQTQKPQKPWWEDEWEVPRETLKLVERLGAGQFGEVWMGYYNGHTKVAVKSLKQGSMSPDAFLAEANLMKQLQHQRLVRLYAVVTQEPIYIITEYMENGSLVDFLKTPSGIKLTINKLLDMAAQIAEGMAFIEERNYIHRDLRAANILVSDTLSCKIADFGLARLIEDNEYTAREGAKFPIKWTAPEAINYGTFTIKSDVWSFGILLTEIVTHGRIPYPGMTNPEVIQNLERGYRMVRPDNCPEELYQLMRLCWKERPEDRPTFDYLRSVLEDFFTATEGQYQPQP
Protocol: as §1, §2

T1 sequence (Q06187 whole entry): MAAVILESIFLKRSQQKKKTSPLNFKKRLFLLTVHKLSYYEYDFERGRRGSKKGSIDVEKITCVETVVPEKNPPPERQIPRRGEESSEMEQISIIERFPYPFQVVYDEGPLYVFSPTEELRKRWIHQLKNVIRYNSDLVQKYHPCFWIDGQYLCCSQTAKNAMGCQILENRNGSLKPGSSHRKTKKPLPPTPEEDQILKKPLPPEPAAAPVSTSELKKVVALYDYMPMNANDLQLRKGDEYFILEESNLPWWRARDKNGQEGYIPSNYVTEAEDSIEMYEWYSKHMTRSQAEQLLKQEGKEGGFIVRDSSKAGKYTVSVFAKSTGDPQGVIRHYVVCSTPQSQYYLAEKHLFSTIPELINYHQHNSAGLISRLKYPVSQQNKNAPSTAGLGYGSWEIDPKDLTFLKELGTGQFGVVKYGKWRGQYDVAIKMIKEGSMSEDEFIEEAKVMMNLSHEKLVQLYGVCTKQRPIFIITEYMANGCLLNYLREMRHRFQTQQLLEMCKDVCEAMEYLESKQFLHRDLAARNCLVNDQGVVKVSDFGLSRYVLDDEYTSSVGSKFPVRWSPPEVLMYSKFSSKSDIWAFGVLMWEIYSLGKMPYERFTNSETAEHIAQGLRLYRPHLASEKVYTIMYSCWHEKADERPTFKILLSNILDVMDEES

IC50 (BTK) [nM]	IC50 (Jak3) [nM]	IC50 (EGFR) [nM]	IC50 (Lck) [nM]	SMILES
< 100	< 1	< 100	< 100	CN(C/C=C/C(=O)N1CC[C@@H](n2nc(-c3ccc(C(=O)Nc4ncc(C#N)s4)cc3)c3c(N)ncnc32)C1)C1CC1 [Example 12, (R,E)-4-(4-amino-1-(1-(4-(cyclopropyl(methyl)amino)but-2-enoyl)pyrrolidin-3-yl)-1H-pyrazolo[3,4-d]pyrimidin-3-yl)-N-(5-cyanothiazol-2-yl)benzamide]
< 100	< 100	< 1	< 100	CN(C/C=C/C(=O)N1CC[C@@H](n2nc(-c3ccc(C(=O)Nc4nccs4)cc3)c3c(N)ncnc32)C1)C1CC1 [Example 13, (R,E)-4-(4-amino-1-(1-(4-(cyclopropyl(methyl)amino)but-2-enoyl)pyrrolidin-3-yl)-1H-pyrazolo[3,4-d]pyrimidin-3-yl)-N-(thiazol-2-yl)benzamide]
< 1	> 10000	100 to 1000	100 to 1000	Cc1ccnc(NC(=O)c2ccc(-c3nn([C@@H]4CCN(C(=O)/C=C/CNC5CC5)C4)c4ncnc(N)c34)cc2)c1 [Example 23, (R,E)-4-(4-amino-1-(1-(4-(cyclopropylamino)but-2-enoyl)pyrrolidin-3-yl)-1H-pyrazolo[3,4-d]pyrimidin-3-yl)-N-(4-methylpyridin-2-yl)benzamide]
< 1	> 10000	1000 to 10000	> 10000	Cc1ccnc(NC(=O)c2ccc(-c3nn([C@@H]4CCN(C(=O)/C=C/CN(C)C)C4)c4ncnc(N)c34)cc2)c1 [Example 25, (R,E)-4-(4-amino-1-(1-(4-(dimethylamino)but-2-enoyl)pyrrolidin-3-yl)-1H-pyrazolo[3,4-d]pyrimidin-3-yl)-N-(4-methylpyridin-2-yl)benzamide]

Second part, the compound before the results:

SMILES	IC50 (BTK) [nM]	IC50 (Jak3) [nM]	IC50 (EGFR) [nM]	IC50 (Lck) [nM]
CN(C/C=C/C(=O)N1CC[C@@H](n2nc(-c3ccc(C(=O)Nc4ncc(C5CC5)s4)cc3)c3c(N)ncnc32)C1)C1CC1 [Example 7, (R,E)-4-(4-amino-1-(1-(4-(cyclopropyl(methyl)amino)but-2-enoyl)pyrrolidin-3-yl)-1H-pyrazolo[3,4-d]pyrimidin-3-yl)-N-(5-cyclopropylthiazol-2-yl)benzamide]	< 100	< 1	< 1	< 1
CC#CC(=O)N[C@H]1CC[C@H](n2nc(-c3ccc(C(=O)Nc4cc(C(F)(F)F)ccn4)cc3)c3c(N)ncnc32)CC1 [Example 19, 4-(4-amino-1-((1,4-trans)-4-but-2-ynamidocyclohexyl)-1H-pyrazolo[3,4-d]pyrimidin-3-yl)-N-(4-(trifluoromethyl)pyridin-2-yl)benzamide]	< 1	> 10000	100 to 1000	< 100
CN(C/C=C/C(=O)N[C@H]1CC[C@H](n2nc(-c3ccc(C(=O)Nc4cc(C(F)(F)F)ccn4)cc3)c3c(N)ncnc32)CC1)C1CC1 [Example 20, 4-(4-amino-1-((1,4-trans)-4-((E)-4-(cyclopropyl(methyl)amino)but-2-enamido)cyclohexyl)-1H-pyrazolo[3,4-d]pyrimidin-3-yl)-N-(4-(trifluoromethyl)pyridin-2-yl)benzamide]	< 1	> 10000	100 to 1000	< 100
CNC/C=C/C(=O)N1CC[C@@H](n2nc(-c3ccc(C(=O)Nc4cc(C(F)(F)F)ccn4)cc3)c3c(N)ncnc32)C1 [Example 21, (R,E)-4-(4-amino-1-(1-(4-(methylamino)but-2-enoyl)pyrrolidin-3-yl)-1H-pyrazolo[3,4-d]pyrimidin-3-yl)-N-(4-(trifluoromethyl)pyridin-2-yl)benzamide]	< 1	> 10000	< 100	< 100
CNC/C=C/C(=O)N1CC[C@@H](n2nc(-c3ccc(C(=O)Nc4cc(C)ccn4)cc3)c3c(N)ncnc32)C1 [Example 22, (R,E)-4-(4-amino-1-(1-(4-(methylamino)but-2-enoyl)pyrrolidin-3-yl)-1H-pyrazolo[3,4-d]pyrimidin-3-yl)-N-(4-methylpyridin-2-yl)benzamide]	< 1	> 10000	100 to 1000	100 to 1000
Nc1ncnc2c1c(-c1ccc(C(=O)Nc3cc(C(F)(F)F)ccn3)cc1)nn2[C@@H]1CCN(C(=O)/C=C/CNC2CC2)C1 [Example 24, (R,E)-4-(4-amino-1-(1-(4-(cyclopropylamino)but-2-enoyl)pyrrolidin-3-yl)-1H-pyrazolo[3,4-d]pyrimidin-3-yl)-N-(4-(trifluoromethyl)pyridin-2-yl)benzamide]	< 1	> 10000	< 100	< 100
CN(C)C/C=C/C(=O)N1CC[C@@H](n2nc(-c3ccc(C(=O)Nc4cc(C(F)(F)F)ccn4)cc3)c3c(N)ncnc32)C1 [Example 26, (R,E)-4-(4-amino-1-(1-(4-(dimethylamino)but-2-enoyl)pyrrolidin-3-yl)-1H-pyrazolo[3,4-d]pyrimidin-3-yl)-N-(4-(trifluoromethyl)pyridin-2-yl)benzamide]	< 1	> 10000	100 to 1000	> 10000
C=CC(=O)N[C@H]1CC[C@H](n2nc(-c3ccc(C(=O)Nc4cc(C)ccn4)cc3)c3c(N)ncnc32)CC1 [Example 27, 4-(1-((1,4-trans)-4-acrylamidocyclohexyl)-4-amino-1H-pyrazolo[3,4-d]pyrimidin-3-yl)-N-(4-methylpyridin-2-yl)benzamide]	< 1	> 10000	–	> 10000

— patent publication US9624224B2, “Inhibitors of Bruton's tyrosine kinase” (Pharmacyclics LLC, priority 2013, dated 2017)
